# Results published in patent US20240287553A1, “Methods of Production of Double Unsaturated Pheromones Using Metabolic Pathways” (ISCA Technologies, Inc., priority 2022, published 2024).
# Entries after “also recorded” stand apart in the source; their conditions may differ.
# Key:
# [1] = test system: antennae of male P. interpunctella; test: GC-EAD electrophysiology of yeast-produced pheromone, male Plodia interpunctella antennae; conditions: extracts of yeast cell pellet and medium
# Procedure: (§1) Insect rearing and tissue collection. The E. cautella individuals were reared on an artificial diet at 25±2.0° C. under an L16:D8 photoperiod as previously described in the field. Freshly emerged female adults were collected daily before the scotophase and considered to be 0 d old. The female pupae were collected separately, and the newly emerged adults were maintained in a vial under the same conditions. Laboratory cultures of S. exigua and P. interpunctella were reared at 23±1° C. under a 17:7 L:D photoperiod and 60% relative humidity and fed on wheat-germs based and beans based artificial diet, respectively. The male and female pupae were kept separately. Adults were fed with a 10% honey solution, and two- to three-day-old unmated males were used for the electrophysiological experiments.
# Electrophysiology of ZETA yeast produced pheromone. The antennal electrophysiological activity of the yeast-derived pheromone was tested by gas chromatography with electroantennographic detection (GC-EAD). An Agilent 7890 gas chromatograph equipped with a flame ionization detector (FID), an HP-INNOWax column (30 m×0.25 mm i.d., and 0.25 μm film thickness; J&W Scientific, USA) was used. Antennae of male S. exigua and P. interpunctella with both tips cut-off and associated with the head were mounted on a PRG-2 EAG (10× gain) probe (Syntech, Kirchzarten, Germany) using conductive gel (Blågel, Cefar, Malmö, Sweden). The antennal preparation was put in a flow of charcoal-filtered and humidified air that passed through the column outlet. Hydrogen was used as the carrier gas with a constant flow of 1.8 mL/min, and the GC effluent was directed to the FID and EAD by a 1:1 division. The GC inlet was set at 250° C., the transfer line was set at 255° C., and the detector was set at 280° C. The GC oven was programmed from 80° C. for 1 min, then increased to 210° C. at a rate of 10° C./min and held for 10 min. Data were collected with the software GC-EAD Pro Version 4.1 (Syntech).
# [2] = test system: antennae of male S. exigua; test: GC-EAD electrophysiology of yeast-produced pheromone, male Spodoptera exigua antennae; conditions: extracts of yeast cell pellet and medium
# Procedure: as §1
# Electrophysiology of ZETA yeast produced pheromone. The antennal electrophysiological activity of the yeast-derived pheromone was tested by gas chromatography with electroantennographic detection (GC-EAD). An Agilent 7890 gas chromatograph equipped with a flame ionization detector (FID), an HP-INNOWax column (30 m×0.25 mm i.d., and 0.25 μm film thickness; J&W Scientific, USA) was used. […]
Structure (SMILES),antennal response (EAD) [1],antennal response (EAD) [2]
"CCCC/C=C\CCCCCCCCOC(C)=O [Z9-14:OAc, (Z)-9-tetradecenyl acetate]",responded strongly,responded strongly
CCCCCCCCCCCCCCOC(C)=O [tetradecanyl acetate],minor response,
"C/C=C/C/C=C\CCCCCCCCOC(C)=O [ZETA, (Z,E)-9,12-tetradecadienyl acetate]",distinct antennal responses; also recorded: responded strongly; also recorded: typical antennal responses,distinct antennal responses; also recorded: responded strongly; also recorded: typical antennal responses
